In patent publication US12252457B2, “Compositions and methods for reducing tactile dysfunction, anxiety, and social impairment” (President and Fellows of Harvard College, priority 2018, dated 2025):
Entries after “also recorded” stand apart in the source; their conditions may differ. Where a name gives a salt, the structure may show the parent alone.

System: mutant mice (Advillin^Cre; Mecp2^f/y, Advillin^Cre; Shank3^f/f, Advillin^Cre; Gabrb3^f/+, Advillin^Cre; Gabrb3^f/f)
Test: Tactile prepulse inhibition (PPI) assay and response to air puff alone, acute Compound 5
Assay type: in vivo, mouse
Conditions: 2 mg/kg i.p.
Procedure: FIG. 1 is a graph showing percent inhibition of an acoustic startle response (PPI) to a 125-dB noise (pulse), when the startle noise was preceded by a light air puff (prepulse, 0.9 PSI, 50 ms) at an interstimulus interval of 250 ms. Values are expressed as percent of control littermates' performance. Experiments were performed in mutant mice (Advillin^Cre; Mecp2^f/y, Advillin^Cre; Shank3^f/f) and control littermates, 30 minutes after an intraperitoneal injection of either saline (vehicle) the peripherally restricted Compound 5 (2 mg/kg). Two-way ANOVA, with post-hoc Holm-Sidak's test, *, p<0.05, when comparing mutants to control within same treatment; I, p<0.05, or p<0.10, when comparing the same genotype across different treatments.
FIG. 2 is a graph showing response to a light air puff stimulus alone (0.9 PSI, 50 ms). Responses are expressed as a percent of startle response to a 125-B noise. Experiments were performed in mutant mice (Advillin^Cre; Mecp2^f/y, Advillin^Cre; Shank3^f/f) and control littermates, 30 minutes after an intraperitoneal injection of either saline (vehicle) the peripherally restricted Compound 5 (2 mg/kg). Two-way ANOVA, with post-hoc Holm-Sidak's test, *, p<0.05, when comparing mutants to control within same treatment; I, p<0.05, when comparing the same genotype across different treatments.
FIG. 3 is a graph showing magnitude of startle response to a 125-dB noise. Experiments were performed in mutant mice (Advillin^Cre; Mecp2^f/y, Advillin^Cre; Shank3^f/f) and control littermates, 30 minutes after an intraperitoneal injection of either saline (vehicle) the peripherally restricted Compound 5 (2 mg/kg).
FIG. 4 is a graph showing the percent inhibition of an acoustic startle response (PPI) to a 125-dB noise (pulse), when the startle noise was preceded by a light air puff (prepulse, 0.9 PSI, 50 ms) at an interstimulus interval of 250 ms. Values were expressed as percent of control littermates' performance. Experiments were performed in mutant mice (Advillin^Cre; Mecp2^f/y, Advillin^Cre; Shank3^f/f, Advillin^Cre; Gabrb^3f/+, Advillin^Cre; Gabrb3^f/f) and control littermates, 30 minutes after an intraperitoneal injection of either saline (vehicle) or Compound 5 at 2 mg/kg. […] Two-way ANOVA, with post-hoc Holm-Sidak's test, *, p<0.05, when comparing mutants to control within same treatment; t, p<0.05, or #, p<0.10, when comparing the same genotype across different treatments.
FIG. 5 is a graph showing the response to a light air puff stimulus alone (0.9 PSI, 50 ms). Responses were expressed as a percent of startle response to a 125-B noise. Experiments were performed in mutant mice (Advillin^Cre; Mecp2^f/y, Advillin^Cre; Shank3^f/f, Advillin^Cre; Gabrb3^f/+, Advillin^Cre; Gabrb3^f/f) and control littermates, 30 minutes after an intraperitoneal injection of either saline (vehicle) or Compound 5 at 2 mg/kg. […] Two-way ANOVA, with post-hoc Holm-Sidak's test, *, p<0.05, when comparing mutants to control within same treatment; f, p<0.05, when comparing the same genotype across different treatments. […]
FIGS. 1 and 4 show the percent inhibition of an acoustic startle response (PPI) to a 125-dB noise (pulse), when the startle noise was preceded by a light aft puff (prepulse, 0.9 PSI, 50 ms) at an interstimulus interval of 250 ms. Values were expressed as percent of control littermates' performance. […]

[1] = Advillin^Cre, Mecp2^f/y, Shank3^f/f, Gabrb3^f/+ mice, 30 min, vs saline

NC1C=C(C(=O)O)CCC1 (centres unmarked) [Compound 5, 3-aminocyclohex-1-enecarboxylic acid hydrochloride]
tactile (hairy skin) sensitivity in mice with complete loss of GABA-A receptors on peripheral somatosensory neurons (Advillin^Cre, Gabrb3^f/f mice, 30 min, hydrochloride, 2 mg/kg): do not show a reduction in tactile sensitivity; also recorded: did not show any improvements in hairy skin sensitivity | responsivity to a light air puff stimulus alone (0.9 PSI, 50 ms) [1]: reduced responsivity to an air puff stimulus | tactile PPI performance [1]: reduced tactile PPI performance | hairy skin hypersensitivity (tactile PPI assay and response to air puff stimulus alone) (Mecp2, Shank3 and Gabrb3 heterozygous conditional mutant mice, 30 minutes after injection, hydrochloride, 2 mg/kg): reduces hairy skin over-reactivity; also recorded: significantly reduced hairy skin hypersensitivity; also recorded: reduces hairy skin hypersensitivity | motor behaviors or sedation, average startle amplitude elicited by a 125-dB noise (mutant mice and control littermates, 30 min, hydrochloride, 2 mg/kg): did not have negative effects on motor behaviors or sedation; also recorded: no significant differences between any genotypes or treatment groups
